Data: PMC6112376, “Comprehensive Analyses and Prioritization of Tox21 10K Chemicals Affecting Mitochondrial Function by in-Depth Mechanistic Studies” (Environmental Health Perspectives, 2018)
Like-named read-outs stand apart in the source and are kept apart here.

Legend:
hNSC = assay: MMP assay in human neural stem cells (hNSC); type: cell-based; conditions: Homo sapiens, Neural stem cell; 1 h treatment; fresh re-sourced stocks; mean±SD of three experiments; read-out: hNSC IC50 (MMP)
HepG2 cells [1] = assay: ROS-Glo hydrogen peroxide (ROS) assay; type: cell-based, human; conditions: 2 h treatment, mean±SD of three experiments
HepG2 cells [2] = assay: Intracellular ATP content (cell viability) assay; type: cell-based, human; conditions: 40 h treatment, mean±SD of three experiments; for ATP (HepG2, glucose) IC50: 5 mM glucose; for ATP (HepG2, galactose) IC50: 10 mM galactose
[3] = system: p53 (p53-bla HCT-116 cells); assay: p53 β-lactamase reporter gene assay; type: cell-based, human; conditions: 16 h incubation; mean±SD of three experiments
[4] = system: Nrf2/ARE (ARE-bla HepG2 cells); assay: ARE β-lactamase reporter gene assay; type: cell-based, human; conditions: Homo sapiens, HepG2; 16 h incubation; mean±SD of three experiments; read-out: ARE (HepG2) EC50
[5] = system: isolated rat liver mitochondria; assay: Oxygen consumption, Clark-type oxygen electrode; type: biochemical; conditions: for I-ADP, % of control (O2 consumption rate): glutamate/malate driven state 3 respiration; for I-ADP, % of control (O2 consumption rate) / I-sub, % of control (O2 consumption rate) / II-ADP, % of control (O2 consumption rate) / II-sub, % of control (O2 consumption rate): isolated rat liver mitochondria; for I-sub, % of control (O2 consumption rate): glutamate/malate driven state 4 respiration; for II-ADP, % of control (O2 consumption rate): succinate-driven state 3 respiration; for II-sub, % of control (O2 consumption rate): succinate-driven state 4 respiration; for Potential Mechanism: mitochondrial respiration in isolated rat liver mitochondria, Clark type oxygen electrode, over tested concentrations
[6] = system: HeLa cells expressing YFP-Parkin; assay: Parkin translocation assay; type: cell-based, human; conditions: HeLa cells stably expressing YFP-Parkin; treated for 2 h
HepG2 cells [7] = conditions: 10 mM galactose, no glucose; 1 h treatment; mean±SD of three experiments
HepG2 cells [8] = conditions: cited from earlier work
HepG2 cells [9] = assay: cells; conditions: Homo sapiens; for Emax: HepG2, read-out: MMP assays efficacy (%) HepG2
[10] = system: Caenorhabditis elegans strain PE255; assay: In vivo C. elegans ATP status assay
rat primary hepatocytes = assay: MMP assay in rat primary hepatocytes; conditions: for Rat hepatocytes (efficacy) (MMP): % of positive control, mean±SD of three experiments; for IC50: Rattus norvegicus, Hepatocyte; for MMP assays efficacy (%) Rat Hepatocytes: mean ± SD of three experiments
[11] = system: Caenorhabditis elegans (Bristol N2); assay: C. elegans larval development and growth assay
[12] = HepG2, 1 h, read-out: HepG2 IC50 Glucose (MMP)
[13] = HepG2, read-out: MMP assays IC50 (µM) HepG2
[14] = 1 h, read-out: Rat hepatocytes IC50 (MMP)
[15] = read-out: MMP assays IC50 (µM) Rat Hepatocytes

O=C(O)c1cc(O)c2c(c1)C(=O)c1cccc(O)c1C2=O [Rhein]
IC50 (hNSC): 10.3 ± 3.4 µM
ROS (HepG2) EC50 (HepG2 cells [1]): Inactive
ATP (HepG2, glucose) IC50 (HepG2 cells [2]): Inactive
ATP (HepG2, galactose) IC50 (HepG2 cells [2]): Inactive
p53 (HCT-116) EC50 [3]: Inactive
EC50 [4]: 15.4 ± 8.38 µM
I-ADP, % of control (O2 consumption rate) ([5]; 4 µM): 90 (49.1) % of control
I-sub, % of control (O2 consumption rate) ([5]; 4 µM): 105 (13.7) % of control
II-ADP, % of control (O2 consumption rate) ([5]; 4 µM): 89 (78.7) % of control
II-sub, % of control (O2 consumption rate) ([5]; 4 µM): 103 (25.4) % of control
I-ADP, % of control (O2 consumption rate) ([5]; 20 µM): 87 (47.4) % of control
I-sub, % of control (O2 consumption rate) ([5]; 20 µM): 127 (16.6) % of control
II-ADP, % of control (O2 consumption rate) ([5]; 20 µM): 87 (76.7) % of control
II-sub, % of control (O2 consumption rate) ([5]; 20 µM): 128 (31.4) % of control
Potential Mechanism [5]: Uncoupler
Parkin recruitment [6]: Inactive
HepG2 IC50 Galactose (MMP) (HepG2 cells [7]): Inactive
MMP assays efficacy (%) qHTS-HepG2 (HepG2 cells [8]): -100±22%
IC50 (HepG2 cells [8]; read-out: MMP assays IC50 (µM), qHTS-HepG2): 6.06 ± 5.91 µM
IC50 (HepG2 cells [9]; [12]): 15.2 ± 1.76 µM
IC50 (HepG2 cells [9]; [13]): 8.91 µM
Emax (HepG2 cells [9]): 86%
LUM: mean difference in luminescence (ATP content) relative to plate controls ([10]; 0.05 µM): -0.02422
LUM: mean difference in luminescence (ATP content) relative to plate controls ([10]; 0.1 µM): 0.007311
LUM: mean difference in luminescence (ATP content) relative to plate controls ([10]; 0.5 µM): 0.006998
LUM: mean difference in luminescence (ATP content) relative to plate controls ([10]; 1 µM): 0.1053
LUM: mean difference in luminescence (ATP content) relative to plate controls ([10]; 5 µM): 0.1063
LUM: mean difference in luminescence (ATP content) relative to plate controls ([10]; 10 µM): 0.1127
LUM: mean difference in luminescence (ATP content) relative to plate controls ([10]; 25 µM): 0.2215
LUM: mean difference in luminescence (ATP content) relative to plate controls ([10]; 50 µM): 0.2804
LUM: mean difference in luminescence (ATP content) relative to plate controls ([10]; 75 µM): 0.1816
LUM: mean difference in luminescence (ATP content) relative to plate controls ([10]; 100 µM): 0.2365
Rat hepatocytes (efficacy) (MMP) (rat primary hepatocytes): −37.5±6.05%
IC50 (rat primary hepatocytes; [14]): 6.76 ± 4.03 µM
IC50 (rat primary hepatocytes; [15]): 11.6 ± 4.85 µM
MMP assays efficacy (%) Rat Hepatocytes (rat primary hepatocytes): -80±28%
EXT: mean difference in nematode size relative to plate controls ([11]; 0.5 µM): 0.02304
EXT: mean difference in nematode size relative to plate controls ([11]; 1 µM): 0.01629
EXT: mean difference in nematode size relative to plate controls ([11]; 5 µM): 0.06956
EXT: mean difference in nematode size relative to plate controls ([11]; 10 µM): -0.06339
EXT: mean difference in nematode size relative to plate controls ([11]; 25 µM): -0.09625
EXT: mean difference in nematode size relative to plate controls ([11]; 50 µM): 0.296
EXT: mean difference in nematode size relative to plate controls ([11]; 75 µM): 0.2342
EXT: mean difference in nematode size relative to plate controls ([11]; 100 µM): 0.2496

Nc1ccc2c(c1)C(=O)c1ccccc1C2=O [2-Aminoanthraquinone]
IC50 (hNSC): 1.8 ± 0.83 µM
EC50 (HepG2 cells [1]; Homo sapiens, HepG2, read-out: ROS (HepG2) EC50): 4.72 ± 0.8 µM
ATP (HepG2, glucose) IC50 (HepG2 cells [2]): Inactive
ATP (HepG2, galactose) IC50 (HepG2 cells [2]): Inactive
p53 (HCT-116) EC50 [3]: Inactive
EC50 [4]: 3.93 ± 0.89 µM
I-ADP, % of control (O2 consumption rate) ([5]; 100 µM): 101 (53.8) % of control
I-sub, % of control (O2 consumption rate) ([5]; 100 µM): 98 (13.2) % of control
II-ADP, % of control (O2 consumption rate) ([5]; 100 µM): 124 (83.8) % of control
II-sub, % of control (O2 consumption rate) ([5]; 100 µM): 107 (23.2) % of control
Potential Mechanism [5]: Inactive
Parkin recruitment [6]: Inactive
MMP assays efficacy (%) qHTS-HepG2 (HepG2 cells [8]): -85±11%
IC50 (HepG2 cells [8]; read-out: MMP assays IC50 (µM) qHTS-HepG2): 0.51 ± 0.29 µM
IC50 (HepG2 cells [9]; HepG2, 1 h, read-out: HepG2 IC50 Galactose (MMP)): 8.98 ± 1.62 µM
IC50 (HepG2 cells [9]; [12]): 6.58 ± 0.9 µM
IC50 (HepG2 cells [9]; [13]): 1.26 µM
Emax (HepG2 cells [9]): 85%
LUM: mean difference in luminescence (ATP content) relative to plate controls ([10]; 0.5 µM): 0.5241
LUM: mean difference in luminescence (ATP content) relative to plate controls ([10]; 1 µM): 1.069
LUM: mean difference in luminescence (ATP content) relative to plate controls ([10]; 5 µM): 1.958
LUM: mean difference in luminescence (ATP content) relative to plate controls ([10]; 10 µM): 1.846
LUM: mean difference in luminescence (ATP content) relative to plate controls ([10]; 25 µM): 1.929
LUM: mean difference in luminescence (ATP content) relative to plate controls ([10]; 50 µM): 1.555
LUM: mean difference in luminescence (ATP content) relative to plate controls ([10]; 75 µM): 1.569
LUM: mean difference in luminescence (ATP content) relative to plate controls ([10]; 100 µM): 1.98
LEC (lowest effect concentration), ATP assay ([10]; 24 h exposure): ≤ 10 µM
minimal effective concentration ([10]; Caenorhabditis elegans, read-out: LEC LUM: lowest effect concentration for luminescence, a measure of nematode ATP content): 0.5 µM
Rat hepatocytes (efficacy) (MMP) (rat primary hepatocytes): −58.3±7.52%
IC50 (rat primary hepatocytes; [14]): 9.63 ± 3.17 µM
IC50 (rat primary hepatocytes; [15]): 3.57 ± 2.61 µM
MMP assays efficacy (%) Rat Hepatocytes (rat primary hepatocytes): -91±30%
EXT: mean difference in nematode size relative to plate controls ([11]; 0.5 µM): 0.000738
EXT: mean difference in nematode size relative to plate controls ([11]; 1 µM): 0.7865
EXT: mean difference in nematode size relative to plate controls ([11]; 5 µM): 0.06113
EXT: mean difference in nematode size relative to plate controls ([11]; 10 µM): 0.09116
EXT: mean difference in nematode size relative to plate controls ([11]; 25 µM): 0.03934
EXT: mean difference in nematode size relative to plate controls ([11]; 50 µM): 0.4385
EXT: mean difference in nematode size relative to plate controls ([11]; 75 µM): 0.2071
EXT: mean difference in nematode size relative to plate controls ([11]; 100 µM): 0.2541
minimal effective concentration ([11]; Caenorhabditis elegans, read-out: LEC EXT: lowest effect concentration for extinction, a measure of nematode size): 100 µM
